2 compounds from article PMC11206988, “Study on the Effect of Pharmaceutical Excipient PEG400 on the Pharmacokinetics of Baicalin in Cells Based on MRP2, MRP3, and BCRP Efflux Transporters” (Pharmaceutics, 2024) can be followed below.

As a reminder, the Tmax is the time from dosing to the highest level. As usually defined, the AUC(0-t) is exposure summed from dosing to a finite time, without extrapolation to infinity. The Cmax is the maximum level reached in the sampled fluid or tissue. As a reminder, the half-life is the time needed for the level to fall by half in the phase considered.

The test system of one data set is HepG2 cells. The data set can be described thus: Pharmacokinetic study of baicalin in HepG2 cells (intracellular concentrations by UPLC-MS/MS). It is filed as in vitro ADME, human. Conditions: for AUC0–t increase compared with the control group: HepG2 cells. The procedure:
(§1) The samples were quantified by UPLC-MS/MS, which consisted of a Dionex Ultimate 3000 UPLC system (Thermo Fisher Scientific, Waltham, MA, USA) and a triple quadrupole tandem mass spectrometer (Thermo Fisher Scientific, Waltham, MA, USA). The mass spectrometry was performed using an ESI ion source and in positive ion mode. The chromatograms are shown in Figure S1 of the Supplementary Materials. The samples were analyzed by a Waters XBridge BEH C18 column (2.1 × 100 mm). Mobile phase A consists of acetonitrile, while mobile phase B consists of water containing 0.1% formic acid. The elution program was as follows: B was initially 90%, 0 to 9 min B decreased from 90% to 27%, and 9.1 min to 12 min increased from 27% to 90% B. The flow rate of the mobile phase was 0.3 mL/min, the temperature of the automatic injector was 5 °C, and the injection volume was 10 μL. The m/z for BG and B6G was 447 → 271, for baicalein m/z 271 → 123, and for genistein (IS) m/z 271 → 153. Other mass spectrometry parameters included sheath gas (Arb) pressure, 20 psi, and auxiliary gas (Arb) pressure, 2 psi; source voltage, 4.8 KV, and capillary voltage, 2.5 KV; and ion-transfer-tube temperature, 375 °C, and atomization temperature, 275 °C.
(§2) HepG2 cells were cultured at a density of 1×10^5 cells/mL in 12-well plates for 24 h to facilitate the conduct of cellular pharmacokinetic experiments. The old medium was aspirated and discarded, the wells were rinsed twice with PBS, and 1 mL of 100 μM baicalin and baicalin + PEG400 (0.25%, 0.5%, and 1%) was added into 12-well plates to initiate the timer. The culture was terminated after 0.25 h, 0.5 h, 1 h, 2 h, 4 h, 6 h, 8 h, 10 h, 12 h, and 24 h, respectively. Upon reaching the designated time for administration, the cell culture medium was removed, and the wells were washed with 1 mL of cold PBS solution. Subsequently, 240 μL of ultra-pure water were added to each well, and the sample was stored at −80 °C until analysis. The sample was subjected to sonication in an ice bath for 10 min in order to lyse the cells, thereby enabling the determination of the accumulated drug concentration within the cells. Subsequently, 20 μL of the cell lysate was collected, and the protein concentration was quantified using a BCA kit for normalization.
(§3) After repeated freeze-thaw lysis, 100 μL of cell samples were taken, and 300 μL of 0.2% formic acid acetonitrile (containing 200 ng/mL genistein) were added to the vortex for 10 min to precipitate proteins and then centrifuged at 14,000 r/min for 10 min. Then the supernatant was blown dry under nitrogen at 40 °C and then reconstituted with 200 μL of methanol and centrifuged at 14,000 rpm for 10 min. The supernatant was subjected to UPLC-MS/MS analysis.

Assay in data set [1]: as above
The format is in vitro ADME, human. The settings on record: human, intracellular; for AUC(0-t) at 100 μM / Cmax at 100 μM / half-life at 100 μM: HepG2 cells. The method, then: as §1, §2, §3

Where [2] appears, read: HepG2 cells given 100 μM baicalin + H PEG400 (1%).
[3] abbreviates: HepG2 cells given 100 μM baicalin + L PEG400 (0.25%).
The mark [4] stands for this setting: HepG2 cells given 100 μM baicalin + M PEG400 (0.5%).
[5] abbreviates: HepG2 cells given 100 μM baicalin alone (group BG, control).

As to `O=C(O)[C@H]1O[C@@H](Oc2c(O)cc3oc(-c4ccccc4)cc(=O)c3c2O)[C@H](O)[C@@H](O)[C@@H]1O` [B6G, Baicalein-6-O-β-D-glucuronide], in the data set on HepG2 cells (human), the Tmax is listed as 6.00 h and the t1/2 was determined as 5.19 ± 2.37 h.

Regarding `O=c1cc(-c2ccccc2)oc2cc(O)c(O)c(O)c12` [B, baicalein], the “AUC0–t increase compared with the control group” value with HepG2 cells (baicalin + high PEG400 (1%) vs baicalin alone) is 1.27 fold; in the data set with HepG2 cells (baicalin + low PEG400 (0.25%) vs baicalin alone), 1.26 fold; with HepG2 cells (baicalin + medium PEG400 (0.5%) vs baicalin alone), 1.23 fold. Further, the AUC(0-t) at 100 μM in data set [1] (setting [2]) came to 5640 ± 70 ng·h/mL; in data set [1] (setting [3]), 5610 ± 90 ng·h/mL; in data set [1] (setting [4]), 5480 ± 118 ng·h/mL; in data set [1] (HepG2 cells given 100 μM baicalin alone (group BG, control), 0.25-24 h) it was 4450 ± 60 ng·h/mL. Moreover, the Cmax at 100 μM came to 510 ± 10 ng/mL in data set [1] (setting [2]), 550 ± 70 ng/mL in data set [1] (setting [3]), 530 ± 60 ng/mL in data set [1] (setting [4]) and 350 ± 120 ng/mL in data set [1] (setting [5]). For the same compound, the half-life at 100 μM was 6.43 ± 1.85 h in data set [1] (setting [2]), 3.73 ± 0.54 h in data set [1] (setting [3]), 9.4 ± 8.73 h in data set [1] (setting [4]) and 17.6 ± 7.99 h in data set [1] (setting [5]). In addition, the Tmax at 100 μM in data set [1] (setting [5]) turned out to be 6 h.
